# Results: ChEMBL document CHEMBL1201862, “PubChem BioAssay data set” (2004)
# Active and inactive are the calls of the source.
# Legend:
# [1] = biological target: T1, Heat shock factor protein 1 (Mus musculus, UniProt P38532); assay: decrease of HSF1-responsive luciferase luminescence – cell-based, NIH3T3, dose retest, confirmation (AID 2382); type: functional;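 note: NIH3T3 fibroblasts with HSF1-driven luciferase reporter stressed by proteasome inhibitor MG132; luminescence from HSF1-driven luciferase expression after 8 hours of MG132 stress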
# T1 sequence (P38532 whole entry): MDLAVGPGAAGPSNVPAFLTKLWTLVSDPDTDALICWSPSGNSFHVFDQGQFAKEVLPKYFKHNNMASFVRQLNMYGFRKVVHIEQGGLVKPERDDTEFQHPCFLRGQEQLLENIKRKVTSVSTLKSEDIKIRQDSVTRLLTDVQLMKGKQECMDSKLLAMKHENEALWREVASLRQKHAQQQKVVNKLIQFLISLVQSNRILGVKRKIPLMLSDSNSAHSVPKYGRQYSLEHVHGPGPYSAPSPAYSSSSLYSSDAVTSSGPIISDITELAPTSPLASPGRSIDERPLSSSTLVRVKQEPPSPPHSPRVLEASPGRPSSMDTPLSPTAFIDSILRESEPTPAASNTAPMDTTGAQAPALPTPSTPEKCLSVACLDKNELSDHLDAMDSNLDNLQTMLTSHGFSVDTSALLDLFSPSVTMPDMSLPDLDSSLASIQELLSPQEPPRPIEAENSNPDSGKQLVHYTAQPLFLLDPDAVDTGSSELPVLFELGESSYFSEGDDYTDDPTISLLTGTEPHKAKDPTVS
# [2] = viability of uninfected HEp-2 cells – cell-based, HTS, cytotoxicity control for RSV inhibitor project, dose response (AID 2410); type: functional; conditions: human respiratory syncytial virus
# [3] = Trypanosoma cruzi growth suppression in host cells – NIH3T3 host cells, beta-gal luminescence, confirmation (AID 2044); type: functional, cell-based;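 note: intracellular parasites grown in NIH/3T3 mouse fibroblasts as host cells; luminescent beta-galactosidase reporter signal from transgenic T. cruzi replicating inside host cells; inhibitors lower the luminescence signal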
# [4] = NIH3T3 cell viability loss – ATP luminescence, mouse fibroblasts, counter-screen, dose response (AID 2010); type: functional, cell-based;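 note: cells exposed to compound for about 90 hours before reading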
# Cytochrome P450 3A4 = Cytochrome P450 3A4 (Homo sapiens, UniProt P08684);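 note: CYP3A4 tested as one member of a cytochrome P450 panel screen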
# Cytochrome P450 2C19 = Cytochrome P450 2C19 (Homo sapiens, UniProt P33261); assay: Cytochrome panel assay with activity outcomes. Panel member name: p450-cyp2c19 Compounds with AC50 equal or less than 10 uM are considered active; type: functional
# [5] = biological target: T2, Corticotropin-releasing factor receptor 2/Corticotropin-releasing factor-binding protein (Homo sapiens, UniProt P24387+Q13324); assay: activators of CRF receptor 2 with binding protein – uHTS hits, confirmation (AID 602473); type: functional; conditions: read-out: EC50_Mean
# T2 sequence (Q13324 whole entry): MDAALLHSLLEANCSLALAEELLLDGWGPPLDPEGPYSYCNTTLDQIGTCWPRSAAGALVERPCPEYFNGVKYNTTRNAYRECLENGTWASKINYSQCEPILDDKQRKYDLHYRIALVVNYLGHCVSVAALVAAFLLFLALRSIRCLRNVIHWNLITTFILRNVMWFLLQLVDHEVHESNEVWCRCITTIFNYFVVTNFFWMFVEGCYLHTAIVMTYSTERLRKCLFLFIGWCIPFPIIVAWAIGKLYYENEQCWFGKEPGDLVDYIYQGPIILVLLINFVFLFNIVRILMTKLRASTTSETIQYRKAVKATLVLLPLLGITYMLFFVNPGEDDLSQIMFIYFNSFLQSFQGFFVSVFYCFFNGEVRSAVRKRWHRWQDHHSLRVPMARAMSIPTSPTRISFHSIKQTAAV
# T2 sequence (P24387 whole entry): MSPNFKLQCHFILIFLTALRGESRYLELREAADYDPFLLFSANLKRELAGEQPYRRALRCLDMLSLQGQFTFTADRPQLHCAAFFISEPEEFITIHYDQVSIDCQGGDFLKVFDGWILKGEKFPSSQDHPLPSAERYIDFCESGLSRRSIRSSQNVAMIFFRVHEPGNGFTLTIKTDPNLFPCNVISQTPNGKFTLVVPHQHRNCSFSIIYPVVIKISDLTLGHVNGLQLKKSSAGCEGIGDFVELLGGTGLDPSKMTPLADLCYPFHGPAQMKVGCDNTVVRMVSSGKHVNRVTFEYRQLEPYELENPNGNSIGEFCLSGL
# [6] = Luminescence Cell-Based Dose Response HTS to Identify Activators of Luciferase Translation or Activity in H4 […] Cells. [Related pubchem assays: 1829 (Project Summary), 1814 (Primary HTS)]; type: functional
# H4 = assay: Luminescence Cell-Based Dose Response HTS to Identify Activators of 5'UTR Stem-Loop Driven Prion Protein mRNA Translation in H4 Neuroglioblastoma Cells. [Related pubchem assays: 1829 (Project Summary), 1814 (Primary HTS)]; type: functional; conditions: Homo sapiens
# Sequence of Cytochrome P450 2C19 (P33261 whole entry): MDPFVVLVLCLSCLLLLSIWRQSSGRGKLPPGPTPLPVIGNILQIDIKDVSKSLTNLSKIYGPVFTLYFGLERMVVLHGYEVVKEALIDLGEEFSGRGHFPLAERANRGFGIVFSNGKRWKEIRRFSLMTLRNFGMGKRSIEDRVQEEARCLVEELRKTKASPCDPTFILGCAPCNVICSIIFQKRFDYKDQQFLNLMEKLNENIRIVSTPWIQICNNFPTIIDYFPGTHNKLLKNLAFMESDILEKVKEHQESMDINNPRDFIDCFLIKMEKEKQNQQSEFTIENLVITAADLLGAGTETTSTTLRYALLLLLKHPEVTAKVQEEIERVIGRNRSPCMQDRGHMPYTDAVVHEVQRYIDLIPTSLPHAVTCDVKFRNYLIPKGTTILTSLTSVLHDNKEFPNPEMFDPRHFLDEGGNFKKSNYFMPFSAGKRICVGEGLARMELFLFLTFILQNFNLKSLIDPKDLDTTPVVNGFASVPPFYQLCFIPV
# Sequence of Cytochrome P450 3A4 (P08684 whole entry): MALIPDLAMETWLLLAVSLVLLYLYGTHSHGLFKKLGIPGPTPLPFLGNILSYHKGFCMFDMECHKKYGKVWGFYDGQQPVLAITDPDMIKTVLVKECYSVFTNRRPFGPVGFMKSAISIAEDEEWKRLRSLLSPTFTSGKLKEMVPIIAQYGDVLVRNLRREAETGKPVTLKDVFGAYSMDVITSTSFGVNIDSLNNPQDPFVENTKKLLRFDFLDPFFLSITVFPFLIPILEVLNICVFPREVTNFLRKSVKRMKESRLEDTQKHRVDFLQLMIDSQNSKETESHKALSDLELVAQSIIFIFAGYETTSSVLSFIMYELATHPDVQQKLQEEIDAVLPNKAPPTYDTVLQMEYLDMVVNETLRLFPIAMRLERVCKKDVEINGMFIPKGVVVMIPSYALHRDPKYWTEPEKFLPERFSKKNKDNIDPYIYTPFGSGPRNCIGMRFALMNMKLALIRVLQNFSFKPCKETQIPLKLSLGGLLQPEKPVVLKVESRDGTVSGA
smiles,measurement,setting,value
CC1CCN(c2nc3ccc(C(=O)N4CCN(Cc5ccc6c(c5)OCO6)CC4)cc3s2)CC1,EC50,[1],16.5 µM (active)
CC(C)OC(=O)c1ccc(N2CCN(c3ccc(F)cc3)CC2)nc1,CC50,[2],14.8 µM (active)
CCn1c(NCc2cc(Br)ccc2NS(=O)(=O)c2ccc(C)cc2)nc2ccccc21,EC50,[3],2.61 µM (active)
same,EC50,[4],> 60 µM (not active)
COC(=O)Nc1nc(-c2cc(Cl)ccc2Cl)cs1,EC50,[3],0.572 µM (active)
same,EC50,[4],> 60 µM (not active)
CN(Cc1ccco1)c1nc(-c2ccccc2C(F)(F)F)nc2ccccc12,AC50,Cytochrome P450 3A4,12.6 µM (inconclusive)
NS(=O)(=O)c1cccc(NC(=O)CNC(=O)CC23CC4CC(CC(C4)C2)C3)c1,EC50,[1],> 195 µM (not active)
CCn1nc(NC(=O)COC)c2cc3cccc(C)c3nc21,CC50,[2],> 50 µM (active)
COC(=O)c1ccc(NC(S)=Nc2ccccn2)cc1,CC50,[2],41.6 µM (active)
CCCCCSc1nncc(O)n1,AC50,Cytochrome P450 2C19; read-out: AC50,39.8 µM (inconclusive)
Cc1cc(C)cc(N(CC(=O)Nc2ccc(Br)cc2)S(=O)(=O)c2c(C)nc(O)nc2O)c1,EC50,[1],> 195 µM (not active)
Cc1c(CN2CCC(CO)(Cc3ccccc3)CC2)c2ccccc2n1C,EC50,[3],2.4 µM (active)
same,EC50,[4],9.85 µM (active)
COc1ccccc1NC(=O)N(Cc1ccco1)Cc1cc2cc(C)cc(C)c2nc1O,CC50,[2],3.83 µM (active)
CC1(C)CC(=O)C([C@H]2C3=C(CC(C)(C)CC3=O)Oc3ccccc32)C(=O)C1,AC50,Cytochrome P450 3A4,15.8 µM (inconclusive)
CO[C@@H]1/C=C\O[C@]2(C)Oc3c(C)c(O)c4c(O)c(cc(O)c4c3C2=O)NC(=O)/C(C)=C\C=C/[C@H](C)[C@@H](O)[C@H](C)[C@H](O)[C@H](C)[C@H](OC(C)=O)[C@@H]1C,AC50,Cytochrome P450 3A4,3.98 µM (inconclusive)
CCn1nc(C)c(NC(=O)/C=C/c2ccc(OC)c(COc3ccc(Cl)cc3Br)c2)c1C,EC50,[3],0.736 µM (active)
same,EC50,[4],> 60 µM (not active)
CCOc1cc2c(cc1OCC)C(c1ccc(OC)cc1)N(c1ccccc1)C(=O)C2 (stereo unspecified),EC50,[1],> 195 µM (not active)
COc1cc(SC)ccc1C(=O)NCCc1c[nH]c2ccccc12,CC50,[2],19.9 µM (active)
CCN1CCc2c(C#N)c(NCc3ccccc3)nc(N(CC)CC)c2C1,EC50,[3],0.426 µM (active)
same,EC50,[4],> 15 µM (not active)
Cn1c(=O)c(-c2cc(F)cc(F)c2)nc2cncnc21,AC50,Cytochrome P450 3A4,1.26 µM (inconclusive)
N#C/C(=C/C=C/c1ccccc1)C(=O)Nc1ccccc1,EC50,[3],8.82 µM (active)
same,EC50,[4],> 60 µM (not active)
C=C1CCC[C@]2(C)C[C@H]3OC(=O)C(CN(C)CC(OC)OC)[C@H]3CC12 (stereo partly specified),CC50,[2],11.4 µM (active)
COc1ccc(C2C(C(=O)c3ccc4c(c3)CC(C)O4)=C(O)C(=O)N2CCN2CCOCC2)cc1 (stereo unspecified),AC50,Cytochrome P450 2C19,inconclusive
same,AC50,Cytochrome P450 3A4,28.2 µM (inconclusive)
CCc1ccccc1OCC(=O)Nc1ccc2c(c1)OCCO2,CC50,[2],35.6 µM (active)
Cc1noc(C)c1-c1nccc(N2CCOCC2)n1,AC50,Cytochrome P450 2C19; read-out: AC50,10 µM (inconclusive)
Cc1ccn2cc(-c3cccc(NC(=O)c4cccs4)c3)nc2c1,CC50,[2],26.1 µM (active)
Brc1ccc(C2=Nn3cnnc3SC2)cc1,CC50,[2],27.9 µM (active)
CC(=O)Nc1ccc(-c2csc(NCCc3ccccc3)n2)cc1,CC50,[2],41.3 µM (active)
COc1ccc(S(=O)(=O)N2CCCCCC2)cc1C(=O)N(C)Cc1ccc(Cl)cc1Cl,EC50,[5],5 µM (active)
Cc1ccccc1C(=O)Oc1ccc(Br)cc1C(=S)N1CCCC1,AC50,Cytochrome P450 3A4,8.91 µM (inconclusive)
CC(C)(C)c1ccc(OCC(=O)O)c(Cl)c1,AC50,Cytochrome P450 2C19,inconclusive
Cc1nc(C(=O)NC2CCCCC2)sc1C1(C)CC(c2cccnc2)=NO1 (stereo unspecified),EC50,[3],1.3 µM (active)
same,EC50,[4],> 60 µM (not active)
COc1ccc2cc(CN(Cc3cccnc3)Cc3nnnn3Cc3ccccc3)c(O)nc2c1,EC50,[3],0.554 µM (active)
same,EC50,[4],> 60 µM (not active)
CN1CCN(CCCNC(=O)c2ccc(CSCc3cccc(Cl)c3)o2)CC1,AC50,Cytochrome P450 3A4,22.4 µM (inconclusive)
c1ccc2c[n+](Cc3ccnc4ccccc34)ccc2c1,AC50,Cytochrome P450 3A4,1.26 µM (inconclusive)
O=C(NCCOc1ccccc1F)c1cccc(S(=O)(=O)N2CCN(c3ccccc3)CC2)c1,CC50,[2],22.2 µM (active)
CCOc1ccc(NC(=O)C(C)NS(=O)(=O)c2ccc(NC(C)=O)cc2)cc1 (stereo unspecified),EC50,[1],> 195 µM (not active)
CCOC(=O)c1cccnc1NC(=O)c1ccncc1,EC50,[1],> 195 µM (not active)
CNc1ccnc(-c2ccccc2C)n1,AC50,Cytochrome P450 2C19; read-out: AC50,31.6 µM (inconclusive)
same,AC50,Cytochrome P450 3A4,15.8 µM (inconclusive)
CC[C@@H]1OC(=O)[C@H](C)[C@H](O[C@@H]2C[C@](C)(OC)[C@H](O)[C@H](C)O2)[C@H](C)[C@H](O[C@@H]2O[C@@H](C)C[C@@H](N(C)C)[C@@H]2O)[C@](C)(O)C[C@H](C)C(=NOCOCCOC)[C@H](C)[C@H](O)[C@]1(C)O,AC50,Cytochrome P450 3A4,12.6 µM (inconclusive)
COc1ccc(F)cc1C(=O)C1CCCN(Cc2cnc(N3CCCC3)s2)C1 (stereo unspecified),EC50,[3],0.303 µM (active)
same,EC50,[4],> 60 µM (not active)
Cn1c(N)c(C(=O)Nc2ccc3ccccc3c2)sc1=S,EC50,[6],0.117 µM (active)
same,EC50,H4,0.279 µM (active)
Cc1ccc(-c2csc3ncnc(NCCN4CCOCC4)c23)cc1,AC50,Cytochrome P450 3A4,1.12 µM (inconclusive)
Cc1ccccc1NC(=O)c1ccc2c(c1)OCCO2,EC50,[1],> 195 µM (not active)
O=C(Nc1ccc(Br)cc1)c1c[nH]cn1,EC50,[6],34.8 µM (active)
same,EC50,H4,28.8 µM (active)
C=CC[N+]1(CC#CCOC(c2ccccc2)c2ccccc2)CCOCC1.[Cl-],AC50,Cytochrome P450 2C19,inconclusive
O=C(Cn1cnc2ccccc21)NC(c1ccccc1)c1ccccc1,AC50,Cytochrome P450 2C19; read-out: AC50,20 µM (inconclusive)
CCOC(=O)c1sc2nc3n(c(=O)c2c1C)CCC(C)CC3 (stereo unspecified),CC50,[2],38.3 µM (active)
Cc1cc2c(cc1S(=O)(=O)CCC(=O)NC1CCCCC1C)OCC(=O)N2 (stereo unspecified),EC50,[5],> 53 µM (inactive)
O=[N+]([O-])c1ccc(S(=O)(=O)NCC(c2ccco2)N2CCc3ccccc3C2)cc1 (stereo unspecified),EC50,[3],1.86 µM (active)
same,EC50,[4],> 60 µM (not active)
CC1CCN(C(=O)CSc2nc3ccccc3c(=O)n2Cc2ccc3c(c2)OCO3)CC1,CC50,[2],33.5 µM (active)
C[C@H]1O[C@@H](O[C@H]2CC[C@@]3(C)C(CC[C@]4(C)C3C=C[C@]35OC[C@@]6(CCC(C)(C)C[C@H]63)[C@@H](O)C[C@]54C)[C@]2(C)CO)[C@H](O)[C@@H](O[C@@H]2O[C@H](CO)[C@@H](O)[C@H](O)[C@H]2O)[C@H]1O (stereo partly specified),EC50,[5],9.4 µM (active)
CCOC(=O)c1cn(Cc2ccccc2)c(C(=O)OC(C)(C)C)c1O,EC50,[5],5.22 µM (active)
CCCCCCc1cc2cc(C(=N)NNC(=O)c3ccncc3)c(=O)oc2cc1O,EC50,[5],1.11 µM (active)
O=[N+]([O-])c1ccccc1/C=C/C=N/Nc1ccc(S(=O)(=O)Nc2ccc(Cl)cc2)cc1[N+](=O)[O-],EC50,[3],1.35 µM (active)
same,EC50,[4],> 60 µM (not active)
O=C(NCCCN1CCOCC1)c1cc(C(=O)C2CC2)c[nH]1,AC50,Cytochrome P450 2C19; read-out: AC50,3.98 µM (inconclusive)
CCOc1cc(/C=N/NC(N)=S)cc(Br)c1OCc1ccccc1C,EC50,[3],0.114 µM (active)
same,EC50,[4],> 60 µM (inconclusive)
CC(=O)c1cccc(/N=C/C2=C(O)OC3(CCCCC3)OC2=O)c1,AC50,Cytochrome P450 2C19,inconclusive
same,AC50,Cytochrome P450 3A4,35.5 µM (inconclusive)
CCOc1nn(-c2ccccc2)c(O)c1/C=N/c1ccc(Cl)cc1,AC50,Cytochrome P450 3A4,20 µM (inconclusive)
C[C@]12CCC3C(CCC4=C/C(=N/OCC(=O)NC(CCC(N)=O)C(=O)O)CC[C@@]43C)C1CCC2O (stereo partly specified),CC50,[2],22.6 µM (active)
